# In the supplement of paper PMC10307832:
# What was measured:
# Experiment in all cases: relative viability (nuclei count vs DMSO), 5 days (fraction); higher = more cells survive
# FH535 = compound: CC1=C(C=CC(=C1)[N+](=O)[O-])NS(=O)(=O)C2=C(C=CC(=C2)Cl)Cl [FH535]
# Procedure, shortened: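 Lung cancer cell lines received five library-drug doses (not always all listed) spaced by √10, pinned on vehicle-anchored 1536-well plates after an overnight stay at 37 °C. Five days later, with no medium change, nuclei were Hoechst-stained, imaged at 4× and counted with MetaXpress. Viability is treated-well nuclei relative to vehicle-well nuclei, as a median across plates. Passing plates had control CV below 25% and at least one doubling.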
# FH535 + Olaparib = compound: CC1=C(C=CC(=C1)[N+](=O)[O-])NS(=O)(=O)C2=C(C=CC(=C2)Cl)Cl [FH535] + O=C(c1cc(Cc2n[nH]c(=O)c3ccccc23)ccc1F)N1CCN(C(=O)C2CC2)CC1 [Olaparib] (partner 8 µM)
# Procedure, shortened: (§1)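 A single step with final 0.05% Triton X-100, 1% formaldehyde and 1 ug/ml Hoechst fixed the cells and stained nuclei 5 days after treatment. Lung cancer cell lines in 1536-well plates had been treated by pin tool the day after seeding with one drug alone or a fixed anchor-drug dose plus five library-drug doses (not always all listed) in √10 steps, and nuclei were counted on 4× images. Relative viability is the ratio of nuclei in treated wells to nuclei in vehicle wells, taken as the median of duplicate plates.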
# FH535 + Alpelisib = compound: CC1=C(C=CC(=C1)[N+](=O)[O-])NS(=O)(=O)C2=C(C=CC(=C2)Cl)Cl [FH535] + Cc1nc(NC(=O)N2CCC[C@H]2C(N)=O)sc1-c1ccnc(C(C)(C)C(F)(F)F)c1 [Alpelisib] (partner 2 µM)
# Procedure, shortened: as §1
# FH535 + Dasatinib = compound: CC1=C(C=CC(=C1)[N+](=O)[O-])NS(=O)(=O)C2=C(C=CC(=C2)Cl)Cl [FH535] + Cc1nc(Nc2ncc(C(=O)Nc3c(C)cccc3Cl)s2)cc(N2CCN(CCO)CC2)n1 [Dasatinib] (partner 0.075 µM)
# Procedure, shortened: as §1
# FH535 + Crizotinib = compound: CC1=C(C=CC(=C1)[N+](=O)[O-])NS(=O)(=O)C2=C(C=CC(=C2)Cl)Cl [FH535] + C[C@@H](Oc1cc(-c2cnn(C3CCNCC3)c2)cnc1N)c1c(Cl)ccc(F)c1Cl [Crizotinib] (partner 1 µM)
# Procedure, shortened: as §1
Cell Line,relative viability (FH535; 0.04 µM),relative viability (FH535; 0.1265 µM),relative viability (FH535; 0.4 µM),relative viability (FH535; 1.265 µM),relative viability (FH535 + Olaparib; first compound 0.04 µM),relative viability (FH535 + Olaparib; first compound 0.1265 µM),relative viability (FH535 + Olaparib; first compound 0.4 µM),relative viability (FH535 + Olaparib; first compound 1.265 µM),relative viability (FH535 + Alpelisib; first compound 0.1265 µM),relative viability (FH535 + Alpelisib; first compound 0.4 µM),relative viability (FH535 + Alpelisib; first compound 1.265 µM),relative viability (FH535 + Dasatinib; first compound 0.04 µM),relative viability (FH535 + Dasatinib; first compound 0.1265 µM),relative viability (FH535 + Dasatinib; first compound 0.4 µM),relative viability (FH535 + Dasatinib; first compound 1.265 µM),relative viability (FH535 + Crizotinib; first compound 0.1265 µM),relative viability (FH535 + Crizotinib; first compound 0.4 µM),relative viability (FH535 + Crizotinib; first compound 1.265 µM),relative viability (FH535 + Alpelisib; first compound 0.04 µM),relative viability (FH535 + Crizotinib; first compound 0.04 µM)
NCI-H23,0.635,1.01,0.967,0.687,0.255,0.331,0.3,0.273,0.761,0.636,0.631,0.769,0.529,0.61,0.731,0.555,0.584,0.581,,
NCI-H322M,0.92,0.93,0.937,0.761,0.739,0.664,0.778,0.741,0.783,0.83,0.761,0.255,0.268,0.238,0.219,0.906,1.03,1.04,0.722,0.819
NCI-H358,0.853,1.11,0.814,0.674,0.558,0.611,0.589,0.635,0.929,0.84,0.643,0.141,0.15,0.159,0.143,0.576,0.582,0.542,0.919,0.482
NCI-H441,0.929,1.14,1.14,0.84,0.516,0.501,0.459,0.439,0.638,0.686,0.605,0.436,0.518,0.527,0.472,0.797,0.768,0.628,0.529,0.603
NCI-H460,0.997,1.03,0.935,0.699,0.402,0.386,0.379,0.32,0.601,0.51,0.449,0.356,0.546,0.452,0.337,0.991,1.08,0.652,0.388,1.04
NCI-H520,0.963,1.04,0.934,0.915,0.319,0.277,0.268,0.314,0.931,0.952,0.799,0.203,0.193,0.2,0.19,0.893,0.803,0.754,0.825,0.716
NCI-H596,0.926,0.865,0.975,0.908,0.725,0.815,0.733,0.598,0.487,0.481,0.487,0.673,0.574,0.604,0.55,1.02,1.08,0.929,0.527,1.02
NCI-H647,0.872,1.05,0.906,0.801,0.586,0.528,0.467,0.509,1.41,1.14,0.935,0.183,0.193,0.129,0.152,1.02,1.1,0.895,1.18,1.26
NCI-H650,0.82,0.913,0.846,0.687,0.384,0.341,0.369,0.249,1.06,1.12,0.774,0.4,0.462,0.429,0.309,0.854,0.738,0.567,0.975,0.694
NCI-H661,1,1.01,0.955,0.637,0.729,0.743,0.66,0.515,0.55,0.518,0.374,0.704,0.994,0.615,0.475,0.955,0.931,0.797,0.607,1.08
NCI-H727,0.699,0.814,0.706,0.797,0.746,0.675,0.527,0.549,0.523,0.518,0.533,0.405,0.434,0.364,0.402,0.848,0.823,0.783,0.542,0.917
NCI-H838,0.962,0.96,0.851,0.777,0.727,0.768,0.66,0.475,1.06,0.962,0.765,0.276,0.291,0.284,0.269,0.962,0.797,0.654,0.917,0.959
NCI-H1355,0.942,0.981,0.917,0.681,0.649,0.796,0.709,0.476,0.87,0.818,0.401,0.723,0.692,0.57,0.605,1.14,0.977,0.555,0.786,0.929
NCI-H1437,0.976,0.934,0.731,0.422,0.608,0.575,0.491,0.336,0.968,0.897,0.468,0.372,0.405,0.184,0.109,0.831,0.772,0.344,0.982,0.9
NCI-H1651,0.92,0.988,0.964,0.727,0.174,0.194,0.188,0.184,1.07,1.04,0.69,0.397,0.419,0.284,0.201,0.81,0.853,0.611,1,0.856
